Molecules are shown by their SMILES. Values after ≈ are worked out from the molar mass of the structure shown. Active and inactive are the calls of the source. No cut-off for these calls is given here.

Experiment [1] deals with Borrelia burgdorferi. The experiment is described as follows: Antimicrobial activity against Borrelia burgdorferi N40. The experiment is classed as functional. To be noted: Borreliella burgdorferi.
Experiment [2] is described as follows: Reduction in beta-actin gene expression in heart base tissue Borrelia burgdorferi infected mouse at 50 mg/kg. To be noted: Borreliella burgdorferi. Details: dose 50 mg/kg. Format: functional, organism-based.
Experiment [3] deals with Borrelia burgdorferi. The experiment is described as follows: Antimicrobial activity against Borrelia burgdorferi B31. The experiment is classed as functional. To be noted: Borreliella burgdorferi.
Experiment [4] in a line: Reduction in ospA gene expression assessed as gene copies in per mg of SCID mouse ventricular/quadriceps tissue receiving Borrelia burgdorferi infected nymphal ticks from 50 mg/kg treated mouse. The experiment is classed as functional, organism-based. Details: dose 50 mg/kg. To be noted: Borreliella burgdorferi; Cardiac ventricle; at 50 mg/kg.
A short description of experiment [5]: Reduction in flaB gene expression in heart base tissue Borrelia burgdorferi infected mouse at 50 mg/kg. The experiment is classed as functional, organism-based. On the set-up: dose 50 mg/kg. To be noted: Borreliella burgdorferi.
Experiment [6] is described as follows: Reduction in flaB gene expression in heart base tissue Borrelia burgdorferi infected mouse at 12.5 mg/kg. The experiment is classed as functional, organism-based. On the set-up: dose 12.5 mg/kg. To be noted: Borreliella burgdorferi.
Experiment [7] in a line: Reduction in arp gene expression in heart base tissue Borrelia burgdorferi infected mouse at 50 mg/kg. The experiment is classed as functional, organism-based. To be noted: Borreliella burgdorferi. On the set-up: dose 50 mg/kg.
A short description of experiment [8]: Reduction in arp gene expression in heart base tissue Borrelia burgdorferi infected mouse at 12.5 mg/kg. On the set-up: dose 12.5 mg/kg. Format: functional, organism-based. To be noted: Borreliella burgdorferi.
The nature of experiment [9]: Reduction in ospA gene expression in heart base tissue Borrelia burgdorferi infected mouse at 50 mg/kg. To be noted: Borreliella burgdorferi. Format: functional, organism-based. On the set-up: dose 50 mg/kg.
The nature of experiment [10]: Reduction in dbpA gene expression in heart base tissue Borrelia burgdorferi infected mouse at 50 mg/kg. Format: functional, organism-based. Details: dose 50 mg/kg. To be noted: Borreliella burgdorferi.
The nature of experiment [11]: Reduction in ospA gene expression in heart base tissue of SCID mouse transplanted with tibiotarsal and heart base tissue from Borrelia burgdorferi infected 50 mg/kg treated mouse. To be noted: Borreliella burgdorferi, at 50 mg/kg. Details: dose 50 mg/kg. The experiment is classed as functional, organism-based.
Experiment [12] can be described thus: Reduction in oppA-2 gene expression in heart base tissue Borrelia burgdorferi infected mouse at 50 mg/kg. The experiment is classed as functional, organism-based. Details: dose 50 mg/kg. To be noted: Borreliella burgdorferi.
Experiment [13] in a line: Reduction in beta-Actin gene expression in heart base tissue Borrelia burgdorferi infected mouse at 12.5 mg/kg. To be noted: Borreliella burgdorferi. Format: functional, organism-based. Details: dose 12.5 mg/kg.
A short description of experiment [14]: Reduction in ospA gene expression in heart base tissue of SCID mouse transplanted with tibiotarsal and heart base tissue from Borrelia burgdorferi infected 12.5 mg/kg treated mouse. The experiment is classed as functional, organism-based. On the set-up: dose 12.5 mg/kg. To be noted: Borreliella burgdorferi, at 12.5 mg/kg.

For the compound `CN(C)c1cc(NC(=O)CNC(C)(C)C)c(O)c2c1C[C@H]1C[C@H]3[C@H](N(C)C)C(O)=C(C(N)=O)C(=O)[C@@]3(O)C(O)=C1C2=O` [TIGECYCLINE], the MIC against Borrelia burgdorferi [1] and with Borrelia burgdorferi [3] was 0.006 µg/mL (≈ 0.0102 µM) in each case. Besides, the inhibition result in [2], in [12] and in [13] was “inactive” in each case. For the same compound, the inhibition entry in experiment [4], in experiment [5], in experiment [6], in experiment [7], in experiment [8] and in experiment [9] was “Active” throughout. For the same compound, the inhibition result in experiment [10] and in experiment [11] was “Active” throughout.

On to `C[C@H]1c2cccc(O)c2C(=O)C2=C(O)[C@]3(O)C(=O)C(C(N)=O)=C(O)[C@@H](N(C)C)[C@@H]3[C@@H](O)[C@@H]21.O` [DOXYCYCLINE], for which the MIC (in general, the lowest concentration found to suppress growth) was 0.78 µg/mL against Borrelia burgdorferi [1] and 0.39 µg/mL in the experiment with Borrelia burgdorferi [3].

With `CC1(C)S[C@@H]2[C@H](NC(=O)Cc3ccccc3)C(=O)N2[C@H]1C(=O)O` [PENICILLIN G], the MIC against Borrelia burgdorferi [1] and in the experiment on Borrelia burgdorferi [3] was 0.024 µg/mL (≈ 0.0718 µM) each time.

Consider `CO/N=C(\C(=O)N[C@@H]1C(=O)N2C(C(=O)O)=C(CSc3nc(=O)c(O)nn3C)CS[C@H]12)c1csc(N)n1` [CEFTRIAXONE], for which the MIC was 0.048 µg/mL (≈ 0.0866 µM) in the experiment on Borrelia burgdorferi [1] and 0.012 µg/mL (≈ 0.0216 µM) with Borrelia burgdorferi [3]. For the same compound, in experiment [14], the inhibition entry is “Active”.

The values are drawn from ChEMBL document CHEMBL1212796, “Ineffectiveness of tigecycline against persistent Borrelia burgdorferi” (2010).
